Data: patent publication US9670469B2, “UDP-glycosyltransferase derived from ginseng and use thereof” (KOREA ADVANCED INSTITUTE OF SCIENCE AND TECHNOLOGY, priority 2012, dated 2017)

Experiments:
PgUGT74A1 [1] = biological target: T1, PgUGT74A1 (Panax ginseng, UniProt A0A0A6ZFR4); assay: In vitro glycosyltransferase assay with purified recombinant PgUGT74A1 and UDP-glucose; format: biochemical; settings: for ginsenoside into which the substrate is converted by PgUGT74A1: 30 μg enzyme, 5 mM ginsenoside, 50 mM UDP-glucose, 35° C., 12 hours
T1 construct: GST (N); made in house; host or cells: E. coli BL21-CodonPlus (DE3)-RIL
T1 sequence (A0A0A6ZFR4 1-451): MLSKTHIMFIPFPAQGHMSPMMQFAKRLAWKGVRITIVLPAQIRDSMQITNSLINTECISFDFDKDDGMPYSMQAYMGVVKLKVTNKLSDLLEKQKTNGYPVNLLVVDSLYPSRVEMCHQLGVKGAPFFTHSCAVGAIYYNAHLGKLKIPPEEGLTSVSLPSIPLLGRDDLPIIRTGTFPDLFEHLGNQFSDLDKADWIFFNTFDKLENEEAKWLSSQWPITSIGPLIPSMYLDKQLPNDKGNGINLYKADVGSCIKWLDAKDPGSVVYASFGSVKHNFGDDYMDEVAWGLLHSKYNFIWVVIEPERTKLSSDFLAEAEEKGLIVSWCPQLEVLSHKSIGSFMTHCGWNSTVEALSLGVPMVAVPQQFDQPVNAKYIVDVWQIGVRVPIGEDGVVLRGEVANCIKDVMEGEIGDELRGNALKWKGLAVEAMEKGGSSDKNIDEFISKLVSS
Experimental: (§1) A glycosyltransferase assay was performed in a reaction buffer (10 mM PBS buffer, pH 7) containing the purified PgUGT74A1 or PgUGT94B1 (30 μg), a ginsenoside compound (5 mM) and UDP-glucose (50 mM).
(§2) The reaction mixture was incubated at 35° C. for 12 hours, and then the products were analyzed by thin-layer chromatography (TLC) or high performance liquid chromatography (HPLC).
(§3) TLC analysis was performed using a mobile phase (acetone:methanol:DDW=65:35:10 vol/vol) and a 60F254 silica gel plate (Merck, Germany). The resolved product on the TLC plate was detected by spraying the plate with 10% (vol/vol) sulfuric acid (H2SO4) and heating it at 110° C. for 5 minutes.
(§4) HPLC analysis was performed using ODS (2) C18 column (Phenomenex, USA). Water and acetonitrile gradient application time; and a component ratio are as follows: at a flow rate of 1 ml per minute for 0 minute, 68% water and 32% acetonitrile; 8 minutes, 35% water and 65% acetonitrile; 12 minutes, 0% water and 100% acetonitrile; 20 minutes, 0% water and 100% acetonitrile; 20.1 minutes, 68% water and 32% acetonitrile; and 28 minutes, 68% water and 32% acetonitrile.
(§5) Ginsenosides were detected by using a UV-detector (Younglin, Korea) at a wavelength of 203 nm.
First, the recombinant PgUGT of Example 1, PgUGT74A1, was incubated with 10 different types of ginsenosides (PPD, C-K, Rh2, F2, Rg3, Rd, Rg2, Rh1, F1 and PPT) in the presence of UDP-glucose, and the products converted by the recombinant PgUGT were analyzed by TLC.

PgUGT94B1 [2] = biological target: T2, PgUGT94B1 (Panax ginseng, UniProt A0A0A6ZFY4); assay: In vitro glycosyltransferase assay with purified recombinant PgUGT94B1 and UDP-glucose; format: biochemical; settings: 30 μg enzyme, 5 mM ginsenoside, 50 mM UDP-glucose, 35° C., 12 hours
T2 construct: GST (N); made in house; host or cells: E. coli BL21-CodonPlus (DE3)-RIL
T2 sequence (A0A0A6ZFY4 1-442): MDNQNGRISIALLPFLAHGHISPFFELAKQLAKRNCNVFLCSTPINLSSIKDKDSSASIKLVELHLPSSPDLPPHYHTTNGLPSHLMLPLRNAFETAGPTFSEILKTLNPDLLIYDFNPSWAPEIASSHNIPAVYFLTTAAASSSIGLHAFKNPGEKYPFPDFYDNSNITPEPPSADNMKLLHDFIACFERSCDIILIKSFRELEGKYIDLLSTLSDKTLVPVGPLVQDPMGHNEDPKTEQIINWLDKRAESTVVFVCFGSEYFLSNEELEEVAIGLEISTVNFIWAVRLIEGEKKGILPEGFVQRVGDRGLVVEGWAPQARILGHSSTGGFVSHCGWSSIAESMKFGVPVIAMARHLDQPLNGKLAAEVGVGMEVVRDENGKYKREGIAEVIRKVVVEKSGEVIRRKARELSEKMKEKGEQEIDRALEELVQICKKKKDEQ
Experimental: as §1, §2, §3, §4, §5
First, the recombinant PgUGT of Example 1, PgUGT94B1, was incubated with 10 different types of ginsenosides (PPD, C-K, Rh2, F2, Rg3, Rd, Rg2, Rh1, F1 and PPT) in the presence of UDP-glucose, and then the products converted by the recombinant PgUGT were analyzed by TLC.

PgUGT74A1 and PgUGT94B1 = assay: Both enzymes reacted with the substrate in a single reaction tube, HPLC; format: biochemical, Panax ginseng; settings: UDP-Glc
Experimental: PPD (upper panel) or C-K (lower panel) was incubated with both of PgUGT74A1 and PgUGT94B1 in the presence of UDP-Glc. Then the reaction mixture was analyzed by HPLC. […] Rg3 and Rd converted by the above two enzymes are marked as black triangles;
as §1, §2, §4, §5
In order to confirm this, the above two enzymes were reacted with PPD as a substrate in a single reaction tube. […] In addition, the two enzymes were reacted with C-K as a substrate in a single reaction tube.

[3] = test system: PgPPDS (protopanaxadiol synthase); assay: Quantitative RT-PCR of PgPPDS in ginseng leaf after MeJA spraying; format: in vivo, Panax ginseng; settings: ginseng leaves, 200 μM MeJA sprayed everyday for 5 days, sampled 6th day; normalized to tubulin
Experimental: (§6) Total RNA was isolated from the leaf or root of 15-month-old ginseng using a spectrum plant total RNA kit (Sigma-Aldrich). 200 μM methyl jasmonate (MeJA) was sprayed onto the leaves of ginseng everyday for a total of 5 days, and samples were collected on the 6th day. The 1 μg of total RNA was used for cDNA synthesis.
(§7) Expression levels of different genes were examined by a quantitative RT-PCR using the primer sets listed in the following Table 2, and the results were normalized to the expression level of tubulin.
(§8) The 15-month old ginseng grown in a growth chamber under LD conditions was collected, and MeJA was sprayed onto its leaves everyday for a total of 5 days. To analyze expression level of the ginsenoside biosynthetic genes, samples were collected on the 6th days. […] However, expression of PgPPTS was not induced by MeJA under the conditions of the present invention.

PgUGT74A1 [4] = assay: Quantitative RT-PCR of PgUGT74A1 in ginseng leaf after MeJA spraying; format: in vivo, Panax ginseng; settings: ginseng leaves, 200 μM MeJA sprayed everyday for 5 days, sampled 6th day; normalized to tubulin
Experimental: as §6, §7, §8

ginseng = assay: Concentrations of 4 major ginsenosides after spraying MeJA onto the leaf of ginseng; format: in vivo, Panax ginseng
Excerpt: MeJA was sprayed on the leaf everyday for a total of 5 days, and on the 6th day after the start of the treatment, samples were collected for the expression analysis. […] Error bars show a standard deviation (SD) of three biological replicates; and
as §8
In this regard, the concentrations of 4 major ginsenosides were measured after spraying MeJA onto the leaf of ginseng. The treatment of MeJA increased the concentrations of two PPD-type ginsenosides, Rd and Rb1, by 1.55 and 1.14 times respectively (FIG. 6c). In addition, the treatment of MeJA increased the concentrations of two PPT-type ginsenosides, Rg1 and Re, by 2.61 and 1.45 times respectively.

[5] = test system: PgDS (dammarenediol-II synthase); assay: Quantitative RT-PCR of PgDS in ginseng leaf after MeJA spraying; format: in vivo, Panax ginseng; settings: ginseng leaves, 200 μM MeJA sprayed everyday for 5 days, sampled 6th day; normalized to tubulin
Experimental: as §6, §7, §8

[6] = test system: PgPPTS (protopanaxatriol synthase); assay: Quantitative RT-PCR of PgPPTS in ginseng leaf after MeJA spraying; format: in vivo, Panax ginseng; settings: ginseng leaves, 200 μM MeJA sprayed everyday for 5 days, sampled 6th day; normalized to tubulin
Experimental: as §6, §7, §8

PgUGT94B1 [7] = assay: Quantitative RT-PCR of PgUGT94B1 in ginseng leaf after MeJA spraying; format: in vivo, Panax ginseng; settings: ginseng leaves, 200 μM MeJA sprayed everyday for 5 days, sampled 6th day; normalized to tubulin
Experimental: as §6, §7, §8

| Compound | ginsenoside into which the substrate is converted by PgUGT74A1 (PgUGT74A1 [1]; HPLC) | ginsenoside into which the substrate is converted by PgUGT74A1 (PgUGT74A1 [1]; TLC) | ginsenoside into which the substrate is converted by PgUGT94B1 (PgUGT94B1 [2]; HPLC) | ginsenoside into which the substrate is converted by PgUGT74A1 plus PgUGT94B1 (PgUGT74A1 and PgUGT94B1) | ginsenoside into which the substrate is converted by PgUGT94B1 (PgUGT94B1 [2]; TLC) | other results |
| --- | --- | --- | --- | --- | --- | --- |
| CC(C)=CCCC(C)(O)[C@H]1CC[C@]2(C)[C@@H]1[C@H](O)C[C@@H]1[C@@]3(C)CC[C@H](O)C(C)(C)[C@@H]3CC[C@]12C (stereo in doubt) [PPD, Protopanaxadiol] | ginsenoside Rh2 | ginsenoside Rh2 | did not convert | Rg3 | – | glycosylation by PgUGT74A1 of the hydroxyl groups at the C-12 and C-20 positions (PgUGT74A1 [1]; regioselectivity, positions other than C-3 of PPD): not glycosylated |
| CC(C)=CCC[C@](C)(O[C@@H]1O[C@H](CO)[C@@H](O)[C@H](O)[C@H]1O)[C@H]1CC[C@]2(C)[C@@H]1[C@H](O)C[C@@H]1[C@@]3(C)CC[C@H](O)C(C)(C)[C@@H]3CC[C@]12C [C-K, Compound K] | – | ginsenoside F2 | did not convert | Rd | – | – |
| CC/C=C\C[C@H]1C(=O)CC[C@@H]1CC(=O)OC [MeJA, Methyl (1R,2R)-3-Oxo-2-(2Z)-2-pentenyl-cyclopentaneacetate] | – | – | – | – | – | expression of PgPPDS [3]: enhanced; expression level of PgUGT74A1 (PgUGT74A1 [4]): higher expression level; increase of the concentration of ginsenoside Rb1 (ginseng; PPD-type ginsenoside): 1.14 times; increase of the concentration of ginsenoside Rd (ginseng; PPD-type ginsenoside): 1.55 times; increase of the concentration of ginsenoside Re (ginseng; PPT-type ginsenoside): 1.45 times; increase of the concentration of ginsenoside Rg1 (ginseng; PPT-type ginsenoside): 2.61 times; expression of PgDS [5]: enhanced; expression of PgPPTS [6]: not induced; expression level of PgUGT94B1 (PgUGT94B1 [7]): higher expression level |
| CC(C)=CCC[C@](C)(O)[C@H]1CC[C@]2(C)[C@@H]1[C@H](O)C[C@@H]1[C@@]3(C)CC[C@H](O)C(C)(C)[C@@H]3[C@@H](O)C[C@]12C [PPT, Protopanaxatriol] | – | – | – | – | – | glycosylation by PgUGT74A1 of the hydroxyl groups at the C-3, C-6, C-12 and C-20 positions (PgUGT74A1 [1]; regioselectivity, PPT): not glycosylated |
| CC(C)=CCC[C@](C)(O[C@@H]1O[C@H](CO)[C@@H](O)[C@H](O)[C@H]1O)[C@H]1CC[C@]2(C)[C@@H]1[C@H](O)C[C@@H]1[C@@]3(C)CC[C@H](O[C@@H]4O[C@H](CO)[C@@H](O)[C@H](O)[C@H]4O)C(C)(C)[C@@H]3CC[C@]12C [ginsenoside F2] | did not convert | – | Rd | – | ginsenoside Rd | – |
| CC(C)=CCC[C@](C)(O)[C@H]1CC[C@]2(C)[C@@H]1[C@H](O)C[C@@H]1[C@@]3(C)CC[C@H](O[C@@H]4O[C@H](CO)[C@@H](O)[C@H](O)[C@H]4O)C(C)(C)[C@@H]3CC[C@]12C [ginsenoside Rh2] | did not convert | – | ginsenoside Rg3 | – | ginsenoside Rg3 | – |
